Source: the supplement of paper PMC11451515

System: P12-Ichikawa
Assay: cell viability relative to DMSO control; higher = less cytotoxic
Details: 48 h
Method in brief: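 Three leukemia lines were tested: NOMO1 and SEM at 500 cells/well and P12-Ichikawa at 1000 cells/well. Each was adapted for at least four passages in each medium and seeded in 5 μl in 1536-well plates, and library compounds in DMSO were pin-dosed from 47 μM to 0.79 nM in 11 threefold steps. After 48 h at 37°C, CellTiter-Glo One luminescence was read. Viability is a percentage relative to DMSO wells on each plate, with cell-free wells as background.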

[1] = HPLM + 10% dialyzed FBS, 0.000781 µM
[2] = HPLM + 10% dialyzed FBS, 0.00234 µM
[3] = HPLM + 10% dialyzed FBS, 0.00702 µM
[4] = HPLM + 10% dialyzed FBS, 0.0211 µM
[5] = HPLM + 10% dialyzed FBS, 0.0632 µM
[6] = HPLM + 10% dialyzed FBS, 0.19 µM
[7] = HPLM + 10% dialyzed FBS, 0.569 µM
[8] = HPLM + 10% dialyzed FBS, 1.71 µM
[9] = HPLM + 10% dialyzed FBS, 5.12 µM
[10] = HPLM + 10% dialyzed FBS, 15.4 µM
[11] = HPLM + 10% dialyzed FBS, 46.1 µM
[12] = RPMI 5 mM glucose + 10% FBS, 0.000781 µM
[13] = RPMI 5 mM glucose + 10% FBS, 0.00234 µM
[14] = RPMI 5 mM glucose + 10% FBS, 0.00702 µM
[15] = RPMI 5 mM glucose + 10% FBS, 0.0211 µM
[16] = RPMI 5 mM glucose + 10% FBS, 0.0632 µM
[17] = RPMI 5 mM glucose + 10% FBS, 0.19 µM
[18] = RPMI 5 mM glucose + 10% FBS, 0.569 µM
[19] = RPMI 5 mM glucose + 10% FBS, 1.71 µM
[20] = RPMI 5 mM glucose + 10% FBS, 5.12 µM
[21] = RPMI 5 mM glucose + 10% FBS, 15.4 µM
[22] = RPMI 5 mM glucose + 10% FBS, 46.1 µM
[23] = RPMI 5 mM glucose + 10% dialyzed FBS, 0.000781 µM
[24] = RPMI 5 mM glucose + 10% dialyzed FBS, 0.00234 µM
[25] = RPMI 5 mM glucose + 10% dialyzed FBS, 0.00702 µM
[26] = RPMI 5 mM glucose + 10% dialyzed FBS, 0.0211 µM
[27] = RPMI 5 mM glucose + 10% dialyzed FBS, 0.0632 µM
[28] = RPMI 5 mM glucose + 10% dialyzed FBS, 0.19 µM
[29] = RPMI 5 mM glucose + 10% dialyzed FBS, 0.569 µM
[30] = RPMI 5 mM glucose + 10% dialyzed FBS, 1.71 µM
[31] = RPMI 5 mM glucose + 10% dialyzed FBS, 5.12 µM
[32] = RPMI 5 mM glucose + 10% dialyzed FBS, 15.4 µM
[33] = RPMI 5 mM glucose + 10% dialyzed FBS, 46.1 µM

| Structure (SMILES) | cell viability [1] [%] | cell viability [2] [%] | cell viability [3] [%] | cell viability [4] [%] | cell viability [5] [%] | cell viability [6] [%] | cell viability [7] [%] | cell viability [8] [%] | cell viability [9] [%] | cell viability [10] [%] | cell viability [11] [%] | cell viability [12] [%] | cell viability [13] [%] | cell viability [14] [%] | cell viability [15] [%] | cell viability [16] [%] | cell viability [17] [%] | cell viability [18] [%] | cell viability [19] [%] | cell viability [20] [%] | cell viability [21] [%] | cell viability [22] [%] | cell viability [23] [%] | cell viability [24] [%] | cell viability [25] [%] | cell viability [26] [%] | cell viability [27] [%] | cell viability [28] [%] | cell viability [29] [%] | cell viability [30] [%] | cell viability [31] [%] | cell viability [32] [%] | cell viability [33] [%] |
| --- | --- | --- | --- | --- | --- | --- | --- | --- | --- | --- | --- | --- | --- | --- | --- | --- | --- | --- | --- | --- | --- | --- | --- | --- | --- | --- | --- | --- | --- | --- | --- | --- | --- |
| CCc1cc2c(cc1N1CCC(N3CCOCC3)CC1)C(C)(C)c1[nH]c3cc(C#N)ccc3c1C2=O | 100 | 99.5 | 110 | 130 | 138 | 130 | 131 | 121 | 116 | 115 | 65.3 | 73.7 | 73.3 | 97.2 | 134 | 126 | 124 | 130 | 100 | 110 | 107 | 102 | 86.2 | 81.9 | 108 | 127 | 136 | 128 | 125 | 118 | 109 | 122 | 96.5 |
| CC[N+](CC)(CC)CCOc1cccc(OCC[N+](CC)(CC)CC)c1OCC[N+](CC)(CC)CC | 116 | 109 | 101 | 107 | 127 | 120 | 98.9 | 91.6 | 100 | 107 | 97 | 124 | 115 | 112 | 124 | 114 | 115 | 107 | 108 | 111 | 110 | 103 | 108 | 101 | 108 | 109 | 120 | 109 | 100 | 104 | 103 | 95.2 | 100 |
| N[S+](=O)([O-])c1cc2c(cc1Cl)NC(C(Cl)Cl)N[S+]2(=O)[O-] (configuration not stated) | 102 | 109 | 105 | 112 | 113 | 118 | 117 | 120 | 114 | 123 | 118 | 114 | 120 | 111 | 120 | 126 | 129 | 127 | 130 | 139 | 123 | 128 | 109 | 117 | 104 | 118 | 118 | 122 | 114 | 124 | 121 | 122 | 115 |
| OC[C@H]1O[C@H](C[C@@H]1O)N2\C=C(F)/C(=O)NC2=O | 123 | 109 | 110 | 92.4 | 78.1 | 47.9 | 33.3 | 28.5 | 20.6 | 22.7 | 11 | 115 | 104 | 101 | 106 | 92.2 | 55.2 | 51.6 | 38.1 | 25.6 | 33.6 | 30.1 | 124 | 109 | 116 | 109 | 76.9 | 45.7 | 34.3 | 30.3 | 21.8 | 27.6 | 19.4 |
| CCCC(C)(COC(N)=O)COC(=O)NC(C)C (configuration not stated) | 115 | 117 | 114 | 130 | 127 | 123 | 121 | 119 | 129 | 135 | 119 | – | – | – | – | – | – | – | – | – | – | – | – | – | – | – | – | – | – | – | – | – | – |
| C[C@H]1C[C@H]2[C@@H]3CC[C@](O)(C(=O)CO)[C@@]3(C)C[C@H](O)[C@@H]2[C@@]\4(C)/C=C\C(=O)\C=C14 | 96.9 | 97.4 | 96.9 | 91.7 | 98.7 | 88.1 | 64.1 | 64.9 | 57.3 | 57.6 | 56.9 | 91.2 | 96.3 | 95.4 | 96.8 | 78.5 | 80 | 55.2 | 50.4 | 47.6 | 48.2 | 45 | 85.3 | 88.2 | 84.1 | 93.5 | 88.2 | 74.2 | 53.3 | 40.6 | 40.6 | 38.6 | 34.9 |
| CC(=O)N[C@@H]1[C@@H](NC(N)=N)\C=C(/O[C@H]1[C@H](O)[C@H](O)CO)C(O)=O | 92.9 | 103 | 106 | 106 | 116 | 116 | 117 | 112 | 112 | 114 | 113 | 93.9 | 108 | 109 | 113 | 123 | 112 | 105 | 113 | 117 | 70.2 | 118 | 88.9 | 107 | 109 | 109 | 113 | 107 | 108 | 112 | 115 | 112 | 100 |
| CCC[S+](=O)([O-])Nc1ccc(F)c(C(=O)c2c[nH]c3ncc(Cl)cc23)c1F | 110 | 116 | 109 | 119 | 112 | 110 | 99.8 | 108 | 103 | 65.7 | 44.2 | 115 | 115 | 121 | 116 | 114 | 115 | 123 | 113 | 113 | 85.6 | 54.7 | 118 | 118 | 119 | 118 | 120 | 115 | 111 | 110 | 99.8 | 72.3 | 44.2 |
